These results are taken from PMC5218480 (PLoS ONE, 2017).

For the experiment, the system named is MV-4-11 cells. Nature of the experiment: Gene expression microarray analysis (Affymetrix PrimeView) and GSEA. The experiment is classed as cell-based, human. More on the design: RFU PODN (11730768_x_at) / Fold change /veh PODN (11730768_x_at) / RFU LINC00158 (11744669_a_at) / Fold change /veh LINC00158 (11744669_a_at) / RFU DUSP10 (11751237_a_at) / Fold change /veh DUSP10 (11751237_a_at) / RFU ID3 (11757404_x_at) / Fold change /veh ID3 (11757404_x_at) / RFU PLEKHG5 (11737974_s_at) / Fold change /veh PLEKHG5 (11737974_s_at) / RFU LRRC4B (11730491_at) / Fold change /veh LRRC4B (11730491_at) / RFU GIMAP4 (11747438_a_at) / Fold change /veh GIMAP4 (11747438_a_at) / RFU KRT8 (11758183_x_at) / Fold change /veh KRT8 (11758183_x_at) / RFU CNN1 (11734310_a_at) / Fold change /veh CNN1 (11734310_a_at) / RFU VPS37D (11726825_at) / Fold change /veh VPS37D (11726825_at) / RFU C10orf10 (11716522_x_at) / Fold change /veh C10orf10 (11716522_x_at) / RFU KIR2DL2 /// KIR2DL4 /// KIR2DL5A /// KIR2DL5B /// KIR2DS1 /// KIR2DS2 /// KIR2DS3 /// KIR2DS4 /// KIR3DL3 /// KIR3DL3 /// KIR3DS1 (11738374_at) / Fold change /veh KIR2DL2 /// KIR2DL4 /// KIR2DL5A /// KIR2DL5B /// KIR2DS1 /// KIR2DS2 /// KIR2DS3 /// KIR2DS4 /// KIR3DL3 /// KIR3DL3 /// KIR3DS1 (11738374_at) / RFU C1QL1 (11718748_at) / Fold change /veh C1QL1 (11718748_at) / RFU TMPRSS4 (11747572_a_at) / Fold change /veh TMPRSS4 (11747572_a_at) / RFU HAMP (11756126_x_at) / Fold change /veh HAMP (11756126_x_at) / RFU RNFT2 (11725882_a_at) / Fold change /veh RNFT2 (11725882_a_at) / RFU NR4A2 (11747474_a_at) / Fold change /veh NR4A2 (11747474_a_at) / RFU ABCC12 (11746883_a_at) / Fold change /veh ABCC12 (11746883_a_at) / RFU TMEM136 (11760407_x_at) / Fold change /veh TMEM136 (11760407_x_at) / RFU CLDN22 /// WWC2 (11732394_at) / Fold change /veh CLDN22 /// WWC2 (11732394_at) / RFU HLA-DPB1 (11760878_x_at) / Fold change /veh HLA-DPB1 (11760878_x_at) / RFU SPINT1 (11716480_a_at) / Fold change /veh SPINT1 (11716480_a_at) / RFU GAP43 (11754022_s_at) / Fold change /veh GAP43 (11754022_s_at) / RFU A4GNT (11735810_at) / Fold change /veh A4GNT (11735810_at) / RFU PRB3 (11715151_x_at) / Fold change /veh PRB3 (11715151_x_at) / RFU TUBB4B (11761932_at) / Fold change /veh TUBB4B (11761932_at) / RFU CAPN14 (11732068_a_at) / Fold change /veh CAPN14 (11732068_a_at) / RFU TMCC2 (11721928_a_at) / Fold change /veh TMCC2 (11721928_a_at) / RFU IRGQ (11745062_a_at) / Fold change /veh IRGQ (11745062_a_at) / RFU FAM174B (11720279_a_at) / Fold change /veh FAM174B (11720279_a_at) / RFU TMPRSS4 (11748680_a_at) / Fold change /veh TMPRSS4 (11748680_a_at) / RFU FAM212B (11763350_a_at) / Fold change /veh FAM212B (11763350_a_at) / RFU PLEKHG5 (11743358_a_at) / Fold change /veh PLEKHG5 (11743358_a_at) / RFU ZSCAN30 (11745921_a_at) / Fold change /veh ZSCAN30 (11745921_a_at) / RFU CMKLR1 (11741424_a_at) / Fold change /veh CMKLR1 (11741424_a_at) / RFU LOC101060620 /// MAPK8IP1 (11723275_at) / Fold change /veh LOC101060620 /// MAPK8IP1 (11723275_at) / RFU SPTSSB (11747773_x_at) / Fold change /veh SPTSSB (11747773_x_at) / RFU PRSS12 (11739890_at) / Fold change /veh PRSS12 (11739890_at) / RFU BIN1 (11741810_x_at) / Fold change /veh BIN1 (11741810_x_at) / RFU WNT11 (11732464_a_at) / Fold change /veh WNT11 (11732464_a_at) / RFU C10orf10 (11716521_a_at) / Fold change /veh C10orf10 (11716521_a_at) / RFU C5orf56 (11738089_at) / Fold change /veh C5orf56 (11738089_at) / RFU CYB561 (11721691_x_at) / Fold change /veh CYB561 (11721691_x_at) / RFU ANKRD19P (11752326_a_at) / Fold change /veh ANKRD19P (11752326_a_at) / RFU OR2T12 /// OR2T33 /// OR2T8 (11738714_s_at) / Fold change /veh OR2T12 /// OR2T33 /// OR2T8 (11738714_s_at) / RFU VCAN (11748164_a_at) / Fold change /veh VCAN (11748164_a_at) / RFU JSRP1 (11732532_at) / Fold change /veh JSRP1 (11732532_at) / RFU KRTAP10-11 (11738290_x_at) / Fold change /veh KRTAP10-11 (11738290_x_at) / RFU MYO3A (11730013_a_at) / Fold change /veh MYO3A (11730013_a_at) / RFU EBF3 (11725865_a_at) / Fold change /veh EBF3 (11725865_a_at) / RFU CAMK2N1 (11719241_x_at) / Fold change /veh CAMK2N1 (11719241_x_at) / RFU C5orf56 (11738088_a_at) / Fold change /veh C5orf56 (11738088_a_at) / RFU OLFML3 (11715873_a_at) / Fold change /veh OLFML3 (11715873_a_at) / RFU LOC100653217 /// NTM (11731650_a_at) / Fold change /veh LOC100653217 /// NTM (11731650_a_at) / RFU MAPK11 (11762145_a_at) / Fold change /veh MAPK11 (11762145_a_at) / RFU FIZ1 (11724087_x_at) / Fold change /veh FIZ1 (11724087_x_at) / RFU OASL (11726364_x_at) / Fold change /veh OASL (11726364_x_at) / RFU SOX15 (11748057_x_at) / Fold change /veh SOX15 (11748057_x_at) / RFU CD79A (11719716_a_at) / Fold change /veh CD79A (11719716_a_at) / RFU HIST1H1D (11736915_at) / Fold change /veh HIST1H1D (11736915_at) / RFU CASKIN2 (11723855_a_at) / Fold change /veh CASKIN2 (11723855_a_at) / RFU LOC730098 (11760151_x_at) / Fold change /veh LOC730098 (11760151_x_at) / RFU OR4N2 (11742367_at) / Fold change /veh OR4N2 (11742367_at) / RFU PRRT2 (11749266_a_at) / Fold change /veh PRRT2 (11749266_a_at) / RFU SNX32 (11753110_a_at) / Fold change /veh SNX32 (11753110_a_at) / RFU CDHR5 (11726645_a_at) / Fold change /veh CDHR5 (11726645_a_at) / RFU RCAN1 (11760418_a_at) / Fold change /veh RCAN1 (11760418_a_at) / RFU FAM167A (11723789_a_at) / Fold change /veh FAM167A (11723789_a_at) / RFU FAM26E (11764081_at) / Fold change /veh FAM26E (11764081_at) / RFU ISYNA1 (11749810_s_at) / Fold change /veh ISYNA1 (11749810_s_at) / RFU ACY1 (11761880_at) / Fold change /veh ACY1 (11761880_at) / RFU 11764098_at / Fold change /veh 11764098_at / RFU SAMD14 (11745864_x_at) / Fold change /veh SAMD14 (11745864_x_at) / RFU NPB (11741838_a_at) / Fold change /veh NPB (11741838_a_at) / RFU TMPRSS6 (11731388_a_at) / Fold change /veh TMPRSS6 (11731388_a_at) / RFU KRTAP10-2 (11738614_at) / Fold change /veh KRTAP10-2 (11738614_at) / RFU ARHGAP8 /// PRR5-ARHGAP8 (11727945_x_at) / Fold change /veh ARHGAP8 /// PRR5-ARHGAP8 (11727945_x_at) / RFU KRTAP5-7 /// NADSYN1 (11734609_at) / Fold change /veh KRTAP5-7 /// NADSYN1 (11734609_at) / RFU RASL12 (11751679_a_at) / Fold change /veh RASL12 (11751679_a_at) / RFU CDKN2B (11736163_a_at) / Fold change /veh CDKN2B (11736163_a_at) / RFU PRF1 (11729649_at) / Fold change /veh PRF1 (11729649_at) / RFU, ZNF638 /// ZNF638-IT1 / Fold change vs veh, ZNF638 /// ZNF638-IT1 / RFU, PANK3 / Fold change vs veh, PANK3 / RFU, SH3YL1 / Fold change vs veh, SH3YL1 / RFU, ZEB2 / Fold change vs veh, ZEB2 / RFU, NRIP1 / Fold change vs veh, NRIP1 / RFU, PTTG1IP / Fold change vs veh, PTTG1IP / RFU, CAPN2 / Fold change vs veh, CAPN2 / RFU, MED14 / Fold change vs veh, MED14 / RFU, SNORA58 / Fold change vs veh, SNORA58 / RFU, C1orf63 / Fold change vs veh, C1orf63 / RFU, LRRFIP1 / Fold change vs veh, LRRFIP1 / RFU, NDUFAF7 / Fold change vs veh, NDUFAF7 / RFU, SLC12A2 / Fold change vs veh, SLC12A2 / RFU, IBTK / Fold change vs veh, IBTK / RFU, ESF1 / Fold change vs veh, ESF1 / Fold change vs veh, TMEM50B / RFU, TAOK1 / Fold change vs veh, TAOK1 / RFU, ACBD3 / Fold change vs veh, ACBD3 / RFU, TMA16 / Fold change vs veh, TMA16 / RFU, RWDD3 / Fold change vs veh, RWDD3 / RFU, BCAT1 / Fold change vs veh, BCAT1 / RFU, EDEM3 / Fold change vs veh, EDEM3 / RFU, TMEM33 / Fold change vs veh, TMEM33 / RFU, WDR75 / Fold change vs veh, WDR75 / RFU, AHCTF1 / Fold change vs veh, AHCTF1 / RFU, TFRC / Fold change vs veh, TFRC / RFU, ZDHHC17 / Fold change vs veh, ZDHHC17 / RFU, NOM1 / Fold change vs veh, NOM1 / RFU, ARL8B / Fold change vs veh, ARL8B / RFU, ZBTB11 / Fold change vs veh, ZBTB11 / RFU, TAMM41 / Fold change vs veh, TAMM41 / RFU, KIAA1704 /// LOC100996395 / Fold change vs veh, KIAA1704 /// LOC100996395 / RFU, ING1 / Fold change vs veh, ING1 / RFU, TRMT61B / Fold change vs veh, TRMT61B / RFU, FUBP3 / Fold change vs veh, FUBP3 / RFU, TP53 / Fold change vs veh, TP53 / RFU, TNKS2 / Fold change vs veh, TNKS2 / RFU, ZFP14 / Fold change vs veh, ZFP14 / RFU, ACTR2 / Fold change vs veh, ACTR2 / RFU, PPP3R1 / Fold change vs veh, PPP3R1 / RFU, PIK3R1 / Fold change vs veh, PIK3R1 / RFU, HNRNPA1 / Fold change vs veh, HNRNPA1 / RFU, RNF170 / Fold change vs veh, RNF170 / RFU, ZNF28 / Fold change vs veh, ZNF28 / RFU, RNGTT / Fold change vs veh, RNGTT / RFU, OGT / Fold change vs veh, OGT / RFU, BRD1 / Fold change vs veh, BRD1 / RFU, MARS / Fold change vs veh, MARS / RFU, ZNF655 / Fold change vs veh, ZNF655 / RFU, FAHD1 / Fold change vs veh, FAHD1 / RFU, BDP1 / Fold change vs veh, BDP1 / RFU, LRRCC1 / Fold change vs veh, LRRCC1 / RFU, ARID1A / Fold change vs veh, ARID1A / RFU, ZNF146 / Fold change vs veh, ZNF146 / RFU, ZNF330 / Fold change vs veh, ZNF330 / RFU, GPN3 / Fold change vs veh, GPN3 / RFU, C9orf123 / Fold change vs veh, C9orf123 / RFU, N4BP2L2 / Fold change vs veh, N4BP2L2 / RFU, ARFIP1 / Fold change vs veh, ARFIP1 / RFU, FAM179B / Fold change vs veh, FAM179B / RFU, BCL10 / Fold change vs veh, BCL10 / RFU, UHRF1BP1L / Fold change vs veh, UHRF1BP1L / RFU, BET1 / Fold change vs veh, BET1 / RFU, CNOT2 / Fold change vs veh, CNOT2 / RFU, ZNF268 / Fold change vs veh, ZNF268 / Fold change vs veh, ZNF507 / RFU, DGCR2 / Fold change vs veh, DGCR2 / RFU, WDSUB1 / Fold change vs veh, WDSUB1 / Fold change vs veh, HSP90B1 /// MIR3652 / RFU, ADSS / Fold change vs veh, ADSS / RFU, GK / Fold change vs veh, GK / RFU, ZNF148 / Fold change vs veh, ZNF148 / RFU, TAF9 / Fold change vs veh, TAF9 / RFU, SLC1A5 / Fold change vs veh, SLC1A5 / RFU, SLMO2 / Fold change vs veh, SLMO2 / RFU, ABCC4 / Fold change vs veh, ABCC4 / RFU, LOC101060439 /// RAP1B / Fold change vs veh, LOC101060439 /// RAP1B / RFU, RFX7 / Fold change vs veh, RFX7 / RFU, GTPBP10 / Fold change vs veh, GTPBP10 / RFU, CNEP1R1 / Fold change vs veh, CNEP1R1 / RFU, BIVM-ERCC5 /// ERCC5 / Fold change vs veh, BIVM-ERCC5 /// ERCC5 / RFU, ILF3 / Fold change vs veh, ILF3 / RFU 11762660_at / Fold change /veh 11762660_at / RFU VCAN (11757783_s_at) / Fold change /veh VCAN (11757783_s_at) / RFU DDX43 (11728927_at) / Fold change /veh DDX43 (11728927_at) / RFU KRT8 (11758188_x_at) / Fold change /veh KRT8 (11758188_x_at) / RFU NKD1 (11759106_at) / Fold change /veh NKD1 (11759106_at) / RFU SRD5A1 (11742802_a_at) / Fold change /veh SRD5A1 (11742802_a_at) / RFU TPSAB1 /// TPSB2 (11721975_s_at) / Fold change /veh TPSAB1 /// TPSB2 (11721975_s_at) / RFU GSTM3 (11746129_a_at) / Fold change /veh GSTM3 (11746129_a_at) / RFU IL23R (11737362_x_at) / Fold change /veh IL23R (11737362_x_at) / RFU TMEM51 (11727254_a_at) / Fold change /veh TMEM51 (11727254_a_at) / RFU PIWIL2 (11732686_x_at) / Fold change /veh PIWIL2 (11732686_x_at) / RFU ORM1 (11744905_x_at) / Fold change /veh ORM1 (11744905_x_at) / RFU CCDC152 (11743942_at) / Fold change /veh CCDC152 (11743942_at) / RFU ECM1 (11717891_a_at) / Fold change /veh ECM1 (11717891_a_at) / RFU IL23R (11748794_a_at) / Fold change /veh IL23R (11748794_a_at) / RFU TNFAIP8L3 (11732012_x_at) / Fold change /veh TNFAIP8L3 (11732012_x_at) / RFU MBOAT4 (11741988_at) / Fold change /veh MBOAT4 (11741988_at) / RFU 11764193_at / Fold change /veh 11764193_at / RFU TMEM53 (11763286_at) / Fold change /veh TMEM53 (11763286_at) / RFU MAGEB2 (11727129_at) / Fold change /veh MAGEB2 (11727129_at) / RFU TMEM200A (11744735_a_at) / Fold change /veh TMEM200A (11744735_a_at) / RFU CCDC152 (11751479_a_at) / Fold change /veh CCDC152 (11751479_a_at) / RFU FAM211A (11726209_a_at) / Fold change /veh FAM211A (11726209_a_at) / RFU RGS16 (11746705_a_at) / Fold change /veh RGS16 (11746705_a_at) / RFU VCAN (11755009_s_at) / Fold change /veh VCAN (11755009_s_at) / RFU RHOB (11743442_s_at) / Fold change /veh RHOB (11743442_s_at) / RFU RGS16 (11720943_a_at) / Fold change /veh RGS16 (11720943_a_at) / RFU RGS16 (11720944_at) / Fold change /veh RGS16 (11720944_at) / RFU, VPS4B / Fold change vs veh, VPS4B / RFU, CREB1 / Fold change vs veh, CREB1 / RFU, DNAJC13 / Fold change vs veh, DNAJC13 / RFU, GNAQ / Fold change vs veh, GNAQ / RFU, CDK5R1 / Fold change vs veh, CDK5R1 / RFU, ZRANB3 / Fold change vs veh, ZRANB3 / RFU, CUL4A / Fold change vs veh, CUL4A / RFU, CCNY / Fold change vs veh, CCNY / RFU, UFL1 / Fold change vs veh, UFL1 / RFU, COG3 / Fold change vs veh, COG3 / RFU, DIAPH2 / Fold change vs veh, DIAPH2 / RFU, SKA2 / Fold change vs veh, SKA2 / RFU, AFF3 / Fold change vs veh, AFF3 / RFU, LMF1 / Fold change vs veh, LMF1 / RFU, IPO11 / Fold change vs veh, IPO11 / RFU, DFFB / Fold change vs veh, DFFB / RFU, FOXP1 / Fold change vs veh, FOXP1 / RFU, CARD8 / Fold change vs veh, CARD8 / RFU, STRN3 / Fold change vs veh, STRN3 / RFU, ADK / Fold change vs veh, ADK / RFU, RASSF2 / Fold change vs veh, RASSF2 / RFU, WIPF1 / Fold change vs veh, WIPF1 / RFU, LARP1B / Fold change vs veh, LARP1B / RFU, RASA1 / Fold change vs veh, RASA1 / RFU, RB1 / Fold change vs veh, RB1 / RFU, PPFIA1 / Fold change vs veh, PPFIA1 / RFU, MAT2A / Fold change vs veh, MAT2A / RFU, CCT5 / Fold change vs veh, CCT5 / RFU, WDR92 / Fold change vs veh, WDR92 / RFU, CUX1 / Fold change vs veh, CUX1 / RFU, TTC7A / Fold change vs veh, TTC7A / RFU, TMEM135 / Fold change vs veh, TMEM135 / RFU, DEPTOR / Fold change vs veh, DEPTOR / RFU, CPM / Fold change vs veh, CPM / RFU, DNAJB6 / Fold change vs veh, DNAJB6 / RFU, CACNA2D3 / Fold change vs veh, CACNA2D3 / RFU, DTX4 / Fold change vs veh, DTX4 / RFU, TFCP2 / Fold change vs veh, TFCP2 / RFU, GMCL1 /// GMCL1P1 / Fold change vs veh, GMCL1 /// GMCL1P1 / RFU, AEBP2 / Fold change vs veh, AEBP2 / RFU, SNHG1 /// SNORD22 /// SNORD25 /// SNORD26 /// SNORD27 /// SNORD28 /// SNORD29 /// SNORD31 / Fold change vs veh, SNHG1 /// SNORD22 /// SNORD25 /// SNORD26 /// SNORD27 /// SNORD28 /// SNORD29 /// SNORD31 / Fold change (Aza/veh), C12orf56 (ProbeSet 11735607_a_at) / Fold change (ACY-1035/veh), C12orf56 (ProbeSet 11735607_a_at) / Fold change (Aza/veh), FGFR1OP (ProbeSet 11751329_s_at) / Fold change (ACY-1035/veh), FGFR1OP (ProbeSet 11751329_s_at) / Fold change (Aza/veh), VPS36 (ProbeSet 11739960_a_at) / Fold change (ACY-1035/veh), VPS36 (ProbeSet 11739960_a_at) / RFU SYPL1 (11715823_x_at) / Fold change /veh SYPL1 (11715823_x_at) / RFU IGFBP7 (11715501_s_at) / Fold change /veh IGFBP7 (11715501_s_at) / RFU REEP3 (11722064_at) / Fold change /veh REEP3 (11722064_at) / RFU IGLL1 (11728026_x_at) / Fold change /veh IGLL1 (11728026_x_at): dose or concentration left out as unconfirmed. As to conditions: MV-4-11 cells, 48 hours.

Each structure is given as a SMILES string.

On to `Nc1ncn([C@@H]2O[C@H](CO)[C@@H](O)[C@H]2O)c(=O)n1` [azacitidine], for which the “Fold change /veh GIMAP4 (11747438_a_at)” value came out at 1.07.
